Results on 4 compounds are retold here after patent US10383955B2, “Human mast cell lines, preparation and uses” (CENTRE NATIONAL DE LA RECHERCHE SCIENTIFIQUE, priority 2011, dated 2019).

The subject of series [1] is cells of the ROSA KIT WT line. In words: β-hexosaminidase release after stimulation. It counts as cell-based, human. The conditions noted are these: cells treated with IL-4 20 ng/ml and IgE 2 μg/ml; anti-IgE 5 μg/ml or calcium ionophore 1 μmol/l, 1 hour. As to the method:
The activation of the cells of the ROSA KIT WT line was also measured by determining the released β-hexosaminidase activity. ROSA cells treated with IL-4 (20 ng/ml) and IgE (2 μg/ml) are subsequently activated for 1 hour at 37° C. in the presence of 5% CO2, with the anti-IgE antibody (5 μg/ml) or with the calcium ionophore (Cai) (1 μmol/l).
The cells are then centrifuged and the supernatants are recovered and frozen at −80° C. until the time of the assay. The cells are then lysed. The β-hexosaminidase activity is measured in the supernatant and also in the cell pellet as described by Schwartz and Austen, J Invest Dermatol., 74, 349-353, 1980.
The hydrolysis of p-nitrophenyl-2-acetamido-2-deoxy-β-D-glucopyranoside (or 4-nitrophenyl-N-acetyl-β-D-glucosaminide) by β-hexosaminidase leads to the release of a chromophore product: p-nitrophenol. The latter is measured by spectrophotometry at 405 nm. • 50 μl of p-nitrophenyl-2-acetamido-2-deoxy-β-D-glucopyranoside (Sigma) are added to 5 μl of supernatant • Incubation for 2 hours at 37° C. with stirring. • Addition of 150 μl of stop solution (7.5 g of glycine in 500 ml of H2O, pH=10.7). Reading at 405 nm.

Series [2] deals with cells of the ROSA KIT WT line. In words: Membrane CD203c expression after stimulation (flow cytometry). Particulars: cells treated with IL-4 + IgE 5 days; anti-IgE 5 or 10 μg/ml or calcium ionophore 1 μmol/l, 1 hour. It is filed as cell-based, human. The protocol: In order to know whether the cells of the ROSA KIT WT line can be activated by the IgE-anti-IgE antibody coupling, resulting in degranulation with immediate release of histamine and of β-hexosaminidase associated with a significant increase in membrane CD203c expression and with delayed release of TNF-alpha, cells are treated with IL-4 (20 ng/ml) and IgE (2 μg/ml) (Merck Bioscience) for 5 days and then stimulated with anti-IgE (5 or 10 μg/ml) (Biovalley) or with the calcium ionophore (Cai) (Sigma) (1 μmol/l) for 1 or 6 hours. The 1 hour supernatant and also the pellet are used to assay the histamine and to measure the expression of CD203c at the cell surface, while the TNF-alpha is measured by a specific ELISA method in the supernatant of the cells after 6 hours of stimulation.
One ml of cells treated with IL-4 (20 ng/ml) and IgE (2 μg/ml) for 5 days are washed twice with 3 ml of PBS and then again placed in culture medium at a concentration of 1×10^6 cells/ml. These cells are then stimulated with anti-IgE (5 or 10 μg/ml) or with the calcium ionophore (Cai) (1 μmol/l) for 1 hour. The cells are washed with PBS and put back into 100 μl of PBS, 1% FCS in the presence of an antibody directed against human CD203c, coupled to phycoerythrin (PE) (20 μl/l million cells) (Biolegend).

For series [3] the following is noted: in therapy; cited from earlier work.
The test system of series [4] is HMC-1, subclone HMC-1.1 (KIT V560G). Particulars: juxtamembrane KIT V560G mutation; cited from earlier work.
In series [5] the test system is ROSA KIT Delta 417-419 insY line. The experiment in a line: Proliferation of ROSA KIT Delta 417-419 insY line with tyrosine kinase inhibitors (WST-1). It counts as cell-based, human. The conditions noted are these: 1 μM/l, 48 hours, without SCF, relative to DMSO 0.1%. As to the method: (§1) Finally, the inventors evaluated the effect of two molecules which inhibit tyrosine kinase activity, imatinib and dasatinib (both supplied by Sequoia Research), on the proliferation of the 3 ROSA KIT WT, ROSA KIT D816V and ROSA KIT Delta 417-419 insY lines. To do this, the cells were seeded at a starting concentration of 3×10^5 cells per ml in 96-well plates (100 μl per well) and incubated at 37° C. in an incubator (5% CO2 in air) for 48 hours in the presence of 1 μM/l of imatinib or of dasatinib (in DMSO brought to a final concentration of 0.1%) or in the presence of DMSO alone (0.1% final concentration) in their usual culture medium (containing human SCF at 80 ng/ml for the ROSA KIT WT line but without SCF for the ROSA KIT D816V and ROSA KIT Delta 417-419 insY lines). At the end of this incubation, 10 μl of WST-1 (Roche Applied Science) are added to each well and the cells are incubated for a further 3 hours in an incubator at 37° C. The number of live cells is then measured for each condition by reading the absorbance at 450 nm using a Multiskan MS plate reader (Thermo LabSystems).
(§2) The results obtained for each line (presented in FIG. 15) are expressed as % of live cells (the condition DMSO alone at 0.1% final concentration being considered to contain 100% of live cells).

A further series deals with ROSA KIT WT line. In words: Proliferation of ROSA KIT WT line with tyrosine kinase inhibitors (WST-1). It is filed as cell-based. The conditions noted are these: 1 μM/l, 48 hours, medium with human SCF 80 ng/ml, relative to DMSO 0.1%. The protocol: as §1, §2
In a further series the test system is ROSA KIT D816V line. The experiment in a line: Proliferation of ROSA KIT D816V line with tyrosine kinase inhibitors (WST-1). It counts as cell-based, human. The conditions noted are these: 1 μM/l, 48 hours, without SCF, relative to DMSO 0.1%. As to the method: as §1, §2
Series [6] has as its system subclone HMC-1.2 (KIT V560G and D816V). The conditions noted are these: two KIT mutations (V560G and D816V); cited from earlier work.
The next series addresses KIT D816V mutation (Homo sapiens, UniProt P10721, D816V). The conditions noted are these: cited from earlier work.
Series [7] has as its system ROSA KIT WT, ROSA KIT Delta 417-419 insY and KIT D816V lines. In words: Membrane marker expression in the three ROSA lines (flow cytometry). It counts as cell-based, human. Particulars: IL-4 20 ng/ml. From the text:
Moreover, the expression of certain membrane markers present on the cells of the ROSA KIT Delta 417-419 insY and KIT D816V lines, optionally present in the presence of SCF, was studied by flow cytometry, this expression being compared with that of the cells of the ROSA KIT WT line. The results obtained (presented in FIG. 12) were the following: • the cells of the ROSA KIT Delta 417-419 insY and KIT D816V lines spontaneously express (in the absence of SCF) more CD38, CD203c and KIT than the cells of the ROSA KIT WT line, this increase in expression being completely abolished in the presence of SCF, • the cells of the KIT D816V line express more CD54 than the cells of the other two lines, whether in the absence or in the presence of SCF, • the cells of the KIT D816V line express more FcεR1 than the cells of the other two lines in the absence of SCF, this phenomenon being abolished by adding SCF, • the cells of the ROSA KIT Delta 417-419 insY and KIT D816V lines express, in the presence of SCF, more CD63 than the cells of the ROSA KIT WT line, this increase in expression being completely abolished in the absence of SCF, • the expression of CD53 and of FcεR1 is increased in the 3 lines by treatment with IL-4 (20 ng/ml), and • the expression of KIT is decreased in the three lines by treatment with IL-4 (20 ng/ml).

Series [8] relates to cells of the ROSA KIT WT line. The experiment in a line: FcεRI and KIT expression after IL-4 treatment (flow cytometry). It is filed as cell-based, human. The conditions noted are these: IL-4 20 ng/ml for 5 days. As to the method:
Since it has been shown in the literature that interleukin-4 (IL-4) induces a decrease in KIT expression and an increase in FcεR1 expression by normal human mast cells, the inventors wanted to verify whether this phenomenon could also be observed on the ROSA KIT WT line. For this, they used the following technique: • 10 ml of cells in culture at approximately 2×10^5 cell/ml are used for each tube. • The cells are centrifuged and the pellet is taken up in 10 ml of new culture medium and then the cells are treated with IL-4 (20 ng/ml) (R&D) for 5 days. • The cells are centrifuged in order to remove the culture medium. • The pellets are taken up in 100 μl of PBS+1% FCS, and incubated for 45 min at +4° C. in the presence of anti-human IgE antibody coupled to FITC (20 μl/l million cells (Merck Bioscience)), or in the presence of anti-human KIT antibody coupled to APC (20 μl/l million cells) (Biolegend). • Two rinses are carried out in 3 ml of PBS, 0.1% FCS, and then the tubes are centrifuged. • The pellets are collected in 300 μl of PBS, 0.1% FCS.
The reading is carried out by FACS (BD FACSCalibur).

Entries after “also recorded” stand apart in the source; their conditions may differ.

KIT D816V mutation, sequence (P10721 26-976 D816V): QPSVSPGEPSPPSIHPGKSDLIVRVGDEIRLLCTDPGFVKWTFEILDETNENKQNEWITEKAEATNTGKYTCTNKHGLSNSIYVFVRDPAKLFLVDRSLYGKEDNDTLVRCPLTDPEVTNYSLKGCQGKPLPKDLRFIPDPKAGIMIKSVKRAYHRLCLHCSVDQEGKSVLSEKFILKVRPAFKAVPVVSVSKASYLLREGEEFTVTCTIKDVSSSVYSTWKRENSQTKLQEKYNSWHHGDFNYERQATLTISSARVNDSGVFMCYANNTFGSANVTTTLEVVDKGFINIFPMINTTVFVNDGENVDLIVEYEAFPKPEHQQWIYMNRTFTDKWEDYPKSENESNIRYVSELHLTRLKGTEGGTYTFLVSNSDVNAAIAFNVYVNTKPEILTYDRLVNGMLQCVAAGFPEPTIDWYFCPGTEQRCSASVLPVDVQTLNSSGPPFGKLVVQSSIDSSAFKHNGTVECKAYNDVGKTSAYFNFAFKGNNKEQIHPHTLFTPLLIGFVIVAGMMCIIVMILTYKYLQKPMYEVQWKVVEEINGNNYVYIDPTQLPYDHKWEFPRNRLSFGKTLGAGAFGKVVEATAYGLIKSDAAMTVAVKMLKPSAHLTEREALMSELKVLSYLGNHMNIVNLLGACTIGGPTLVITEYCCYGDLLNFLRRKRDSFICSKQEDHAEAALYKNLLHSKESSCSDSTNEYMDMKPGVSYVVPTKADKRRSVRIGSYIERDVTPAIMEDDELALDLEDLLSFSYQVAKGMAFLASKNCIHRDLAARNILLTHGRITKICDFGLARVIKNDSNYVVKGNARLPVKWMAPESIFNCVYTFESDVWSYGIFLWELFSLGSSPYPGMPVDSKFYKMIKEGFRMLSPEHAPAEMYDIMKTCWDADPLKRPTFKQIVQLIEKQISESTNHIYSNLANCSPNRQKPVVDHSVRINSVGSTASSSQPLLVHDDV

`CNc1ccc2oc(C[C@H]3O[C@@]4(CC[C@H]3C)O[C@H]([C@H](C)C(=O)c3ccc[nH]3)[C@H](C)C[C@H]4C)nc2c1C(=O)O` [calcium ionophore, calcium ionophore A23187]: the “β-hexosaminidase release, of the total enzyme content of the cells” value in series [1] is “up to 80%”. Besides, the “membrane CD203c expression” value in series [2] is recorded as “increase”.

Take `Cc1nc(Nc2ncc(C(=O)Nc3c(C)cccc3Cl)s2)cc(N2CCN(CCO)CC2)n1` [dasatinib]: the toxicity in humans result in [3] is “high toxicity”.

In the case of `Cc1ccc(NC(=O)c2ccc(CN3CCN(C)CC3)cc2)cc1Nc1nccc(-c2cccnc2)n1` [imatinib], the entries for the “sensitivity of the line” value in [4] and in [6] were “sensitive” and “not”, respectively. The “inhibition of proliferation (% of live cells)” value in [5] is listed as “sensitivity”; in series [5] (listed as Imatinib), “sensitive”; in the series on ROSA KIT WT line, “sensitive”; with ROSA KIT D816V line it was “resistance; also recorded: incapable of inhibiting the proliferation”. In addition, the “activity on the KIT D816V mutation” value at KIT D816V mutation was “completely inactive”.

On to IL-4: interleukin-4 cytokine (R&D), for which, in series [7] (in the 3 lines), the “expression of CD53” value was “increased” and the “expression of FcεR1” value was “increased”. In addition, the “expression of KIT” value in [7] (in the three lines) is “decreased”. Besides, in [8], the KIT expression result is on record as “decrease” and the “expression of the high-affinity IgE receptor” value is recorded as “increase”.
